This passage reports IC50 results from patent US10392630B2, “Plants having increased tolerance to herbicides” (BASF AGRO B.V., priority 2013, dated 2019).

Common to all, as to test: biochemical
Experiment [1] concerns the target T1, Amaranthus mutant PPO (AMARE) (Amaranthus tuberculatus, UniProt Q0NZW9, F420I/R128I).
T1 sequence (Q0NZW9 1-534 R128I/F420I): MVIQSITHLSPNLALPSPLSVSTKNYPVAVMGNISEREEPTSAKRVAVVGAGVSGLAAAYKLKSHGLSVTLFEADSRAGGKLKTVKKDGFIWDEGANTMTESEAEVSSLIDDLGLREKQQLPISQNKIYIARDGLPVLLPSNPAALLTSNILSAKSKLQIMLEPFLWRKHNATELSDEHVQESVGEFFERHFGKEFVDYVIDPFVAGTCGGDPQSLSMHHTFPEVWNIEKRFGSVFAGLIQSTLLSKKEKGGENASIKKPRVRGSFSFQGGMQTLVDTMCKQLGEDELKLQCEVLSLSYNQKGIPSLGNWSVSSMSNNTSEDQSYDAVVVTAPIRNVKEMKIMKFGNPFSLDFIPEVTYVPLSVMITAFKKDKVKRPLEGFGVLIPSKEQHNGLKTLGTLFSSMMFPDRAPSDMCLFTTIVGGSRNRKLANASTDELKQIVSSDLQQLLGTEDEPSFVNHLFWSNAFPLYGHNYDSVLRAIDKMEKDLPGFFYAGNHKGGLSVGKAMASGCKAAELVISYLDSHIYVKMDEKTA

In experiment [2] the target is T2, Amaranthus mutant PPO (AMARE) (Amaranthus tuberculatus, UniProt Q0NZW9, F420I/R128L).
T2 sequence (Q0NZW9 1-534 R128L/F420I): T1 sequence (Q0NZW9 1-534 R128I/F420I) with I128L

For experiment [3], the target named is T3, Amaranthus mutant PPO (AMARE) (Amaranthus tuberculatus, UniProt Q0NZW9, F420M/R128I).
T3 sequence (Q0NZW9 1-534 R128I/F420M): T1 sequence (Q0NZW9 1-534 R128I/F420I) with I420M

Experiment [4] concerns the target T4, Amaranthus mutant PPO (AMARE) (Amaranthus tuberculatus, UniProt Q0NZW9, F420M/R128L).
T4 sequence (Q0NZW9 1-534 R128L/F420M): T1 sequence (Q0NZW9 1-534 R128I/F420I) with I128L, I420M

In experiment [5] the target is T5, Amaranthus mutant PPO (AMARE) (Amaranthus tuberculatus, UniProt Q0NZW9, F420V).
T5 sequence (Q0NZW9 1-534 F420V): T1 sequence (Q0NZW9 1-534 R128I/F420I) with I128R, I420V

Molecules are shown by their SMILES. Positions count from the first letter of the chain named.

What is called IC50 is the midpoint of a concentration-inhibition curve. With `C#CCN1C(=O)C(F)(F)Oc2cc(F)c(-n3c(=O)n(C)c(=S)n(C)c3=O)cc21` [BAS 850H], the IC50 came to 0.433 µM in experiment [1]; 1.23 µM in experiment [2]; 0.246 µM in experiment [3]; 0.246 µM in experiment [4]; 0.00161 µM in experiment [5].

Turning to `CC(C)N(C)S(=O)(=O)NC(=O)c1cc(-n2c(=O)cc(C(F)(F)F)n(C)c2=O)c(F)cc1Cl` [saflufenacil], the IC50 is more than 10 µM in experiment [1]; more than 10 µM in experiment [2]; more than 10 µM in experiment [3]; more than 10 µM in experiment [4]; 1.59 µM in experiment [5].
